# Where two headings read alike, the source gives them in different places.
# B1: RNASE A: Ribonuclease A (Sigma cat. no. R6513) (protein, UniProt P61823 27-150, looked up)
# Ribonuclease pancreatic: KETAAAKFERQHMDSSTSAASSSNYCNQMMKSRNLTKDRCKPVNTFVHESLADVQAVCSQKNVACKNGQTNCYQSYSTMSITDCRETGSSKYPNCAYKTTQANKHIIVACEGNPYVPVHFDASV
# B2: inactivated RNASE A: RNASE A inactivated with diethylpyrocarbonate (DEP) (protein, UniProt P61823 27-150, looked up)
# Ribonuclease pancreatic: B1 Ribonuclease pancreatic
# modifications: inactivated with diethylpyrocarbonate
# Tests used:
# [1] = system: embryogenic soybean callus; experiment: Effect of media constituents on growth of embryogenic soybean callus in B1-30; type: cell-based
# Excerpt: In another embodiment of the present invention, a novel culture media may be used to stimulate high frequency production of embryogenic soybean callus. Improvement varied with the genotype being cultured. […] The inclusion of one or more of four media constituents, coconut water, myoinositol, phytic acid and inorganic phosphate concentration, enhanced embryogenic callus production and allowed significant improvements to be made to transgenic clone production in terms of number of clones recovered, embryo morphology, and reduction in the time needed to identify the clones and regenerate plants from them. The medium of Ranch et al., 1985 (referred to herein as B1-30) was used as the basal medium. An example of the medium of the present invention is B1-30 3Co5My0.25PA0.5K (footnote, Table 5). Although this medium is a preferred emobodiment of growth medium, other conventional media may be utilized in the practice of the invention.
# Coconut water has been included in tissue culture media for over 50 years. Coconut water is liquid taken from coconuts to promote growth in plant tissue cultures. It is deproteinized then filter-sterilized. An example is Sigma Biosciences' Cat. No. C5915. […] Most commonly coconut water is used at concentrations of between 5% and 10% by volume of the final culture medium. The role of coconut water in stimulating the growth of embryogenic callus in soybean was investigated and it was discovered that its effect on cotyledon explants routinely used to initiate embryogenic callus of soybean was detrimental when tested at these concentrations.
# One key component of coconut water is myoinositol (Pollard et al., 1961). In an attempt to improve the growth of embryogenic soybean callus with components of coconut water, it was discovered that myoinositol was effective in this regard. Myoinositol has been included in tissue culture media for a variety of plant species. Although apparently not required for all species (Halperin, 1966), it is routinely included in media such as the widely used Murashige and Skoog formulation (Murashige and Skoog, 1962) at a concentration of 100 mg/l. It is at this concentration that it has been included in media used for the culture of embryogenic callus of soybean (e.g., see Ranch et al., 1985).
# There are no known reports of the inclusion of phytic acid in culture media for any plant species. Soybean seeds are rich in natural chelating agents, the most prominent of which is phytic acid (Gibson and Ullah, 1990). Substantial amounts of phosphate are stored in seeds in the form of phytate (Raboy, 1990). It is possible that the capacity of phytic acid to sequester inorganic phosphate has a significant impact upon C partitioning into either starch or sucrose. At 1 gm/l in B1-30, embryogenic callus of a range of genotypes exuded starch, possibly confirming the impact of phytic acid on C partitioning. […] Best results over many passages were obtained with the addition of about 5 mg/l to about 250 mg/l phytic acid to the culture medium depending on the genotype.
# Inorganic phosphorous in the form of KH2PO4, in excess of the amount conventionally used, was added to the base medium (B1-30) along with myoinositol and coconut water. This medium was tested against B1-30 supplemented with phytic acid in addition to KH2PO4, myoinositol and coconut water.
# DH5 cells = type: cell-based, E. coli; conditions: 10 mg/l tetracycline
# Experimental: One microgram of supercoiled pSB1 was added to 1.0 ml of sterile ddH2O and briefly vortexed. […] For a control SB1 plasmid was used without the addition of any cationic polypeptides. Transformation of bacteria was carried out as described in Example 17. Briefly, subcloning efficient DH5 cells from Invitrogen were transformed. Ten microliters of cells were mixed with 0.1 ml of YP medium (10 g/L peptone, 5 g/L yeast extract, and 5 g/L NaCl). The cells were pipeted in the center of a YP plate (same as above plus 15.0 g/L agar) and allowed to dry in a laminar flow hood. The pSB1 plus or minus cationic polypeptides was introduced into the cells using an aerosol beam injector as described in parent U.S. patent application Ser. No. 09/724,265. After about 1 hour of incubation at 37° C., the aerosol beamed cells plus the YP medium were cut out as a slab and placed on YP medium with 10 mg/1 tetracycline. Plasmid SB1 harbors resistance to the antibiotic tetracycline. The cells were grown overnight at 37° C. and then evaluated for the presence of colonies that were growing on the medium. If the plasmid pSB1 were sheared it would not replicate in the cell, thus no antibiotic resistant colony would have formed, however, if the plasmid was not sheared it could replicate once inside the cell and an antibiotic colony would have appeared.
# bacterial cells = type: cell-based, E. coli
# Experimental: Transformation of bacteria using the method of the invention was accomplished as follows: competent E. coli DH5 alpha (Gibco BRL) or HB101 cells were thawed on ice and 5 to 50 microliters were combined with 0.2 ml LB broth. The mixture was pipetted to the center of a plate of LB agar (1.5%) containing 100 mg/l ampicillin and allowed to dry. Aerosol beam parameters were the same as those described previously (Example 1) except as noted in this Example. A pUC-derived plasmid encoding for resistance to the antibiotic ampicillin was delivered to the bacterial cells, as is known in the art. The concentration of DNA ranged from about 1.0 to 1000 μg/ml in 10 mM Tris (pH7.0) or a carbohydrate molecule, such as 1 g/l sucrose. The nebulizing pressure was from about 10 to about 40 psi, preferably 30 to 40 psi. The entrainment temperature was maintained in a given experiment and ranged between experiments from about 24° to about 55° C., and was preferably maintained at about 42° to about 55° C. and most preferably at about 55° C. Various sample flow rates were tested ranging from about 0.25 ml/hour to about 2.0 ml/hour (about 4 μl/min. to about 33 μl/min.). Preferably the flow rate was about 8.0 μl/minute to about 17.0 μl/minute.
# Nucleic acid and protein were simultaneously delivered into bacterial cells. Preparation of bacteria and parameters for the aerosol beam apparatus were the same as described previously for delivery of DNA into bacteria (Example 12). The same buffer, plasmid, and plasmid concentration was used as described in the transformation of bacteria. Ribonuclease A (RNASE A) (Sigma cat. no. R6513) was added to the DNA sample at a final concentration of 2.5 μg/ml.
# As a control, RNASE A at the same concentration used for beaming was pipetted on the cells after the cells were beamed with DNA only. […] To verify that the RNASE A was not degrading the plasmid, the plasmid treated with RNASE A was run on a standard 1% agarose gel. After staining the DNA with ethidium bromide, the DNA appeared intact and no degradation was evident. […]
# [2] = 1 microgram pSB1 in 1.0 ml plus 1.0 ul of 2.0 ug/ul polyamine
# [3] = 1 microgram pSB1 in 1.0 ml plus 2.0 ul of 20 ug/ul cationic polypeptide
molecule,measurement,setting,value
O=P([O-])(O)O.[K+] [KH2PO4],effect on embryogenic soybean callus,"[1]; 500 and 1000 mg/l added to B1-30 with myoinositol and coconut water, with and without phytic acid",Beneficial effects
O[C@H]1[C@H](O)[C@@H](O)[C@H](O)[C@@H](O)[C@H]1O [myoinositol],effect on growth of embryogenic soybean callus,"[1]; up to 10 g/l, alone or in combination with coconut water",pronounced and beneficial effect
"O=P(O)(O)O[C@H]1[C@H](OP(=O)(O)O)[C@@H](OP(=O)(O)O)[C@H](OP(=O)(O)O)[C@@H](OP(=O)(O)O)[C@H]1OP(=O)(O)O [phytic acid, inositolhexaphosphoric acid]",rate of growth of embryogenic callus,"[1]; 1, 5, 10, 50, 100, 250, 500 and 1000 mg/l in B1-30, initial culture passage and/or maintenance as stock culture",significantly increased
same,growth of soybean callus after initial starch exudation,"[1]; 1 gm/l in B1-30, range of genotypes",grew very vigorously
same,effect on embryogenic callus,"[1]; 3000 mg/l, callus browned and died",clear detrimental effect
NCCCCNCCCN [spermidine],transformed colonies growing per plate,DH5 cells; [2],about 500 colonies per plate
NCCCNCCCCNCCCN [spermine],transformed colonies growing per plate,DH5 cells; [2],about 500 colonies per plate
Poly-L-Lysine,transformed colonies growing per plate,DH5 cells; [3],about 500 colonies per plate
Poly-L-Ornithine,transformed colonies growing per plate,DH5 cells; [3],about 500 colonies per plate
B1,colonies on medium containing ampicillin,bacterial cells; 2.5 μg/ml beamed together with DNA,no colonies were observed
same,colonies on medium containing ampicillin,bacterial cells; same concentration pipetted on the cells after beaming with DNA only,transformed colonies grew
B2,transformation of bacteria,"bacterial cells; RNASE A inactivated with diethylpyrocarbonate, beamed with DNA",normal transformation of bacteria

# Reference: US7314969B2, “Methods and compositions for the introduction of molecules into cells” (priority 1999, dated 2008)
